The numbers were not newly measured in patent US6949259B1, “Solid preparations for oral use” (Kyorin Pharmaceutical Co., Ltd., priority 1999, dated 2005), which cites them from elsewhere.

The conditions of data set [1]: Nomura M. et al, Bioorg. Med. Chem. Lett., 9 (1999), 533-538.
The conditions of data set [2]: Nomura M. et al, Bioorg. Med. Chem. Lett., 9 (1999), 533-538. The source holds these as a separate data set.

Regarding `COc1ccc(CC2SC(=O)NC2=O)cc1C(=O)NCc1ccc(C(F)(F)F)cc1` (racemic) [KRP-297, (±)-5-[(2,4-dioxothiazolidine-5-yl)methyl]-2-methoxy-N-[[4-(trifluoromethyl)phenyl]methyl]-benzamide], the blood glucose-lowering action result in data set [1] is listed as “potent blood glucose-lowering action”. Besides, in data set [2], the lipid-lowering action result was “lipid-lowering action”.
